The source of these data is paper PMC5218480 (PLoS ONE, 2017).

The assay deals with MV-4-11 cells. Description: Gene expression microarray analysis (Affymetrix PrimeView) and GSEA. The note with it: ProbeSet 11733108_at; LIST D. It is filed as cell-based, human. Further details: RFU PODN (11730768_x_at) / Fold change /veh PODN (11730768_x_at) / RFU LINC00158 (11744669_a_at) / Fold change /veh LINC00158 (11744669_a_at) / RFU DUSP10 (11751237_a_at) / Fold change /veh DUSP10 (11751237_a_at) / RFU ID3 (11757404_x_at) / Fold change /veh ID3 (11757404_x_at) / RFU PLEKHG5 (11737974_s_at) / Fold change /veh PLEKHG5 (11737974_s_at) / RFU LRRC4B (11730491_at) / Fold change /veh LRRC4B (11730491_at) / RFU GIMAP4 (11747438_a_at) / Fold change /veh GIMAP4 (11747438_a_at) / RFU KRT8 (11758183_x_at) / Fold change /veh KRT8 (11758183_x_at) / RFU CNN1 (11734310_a_at) / Fold change /veh CNN1 (11734310_a_at) / RFU VPS37D (11726825_at) / Fold change /veh VPS37D (11726825_at) / RFU C10orf10 (11716522_x_at) / Fold change /veh C10orf10 (11716522_x_at) / RFU KIR2DL2 /// KIR2DL4 /// KIR2DL5A /// KIR2DL5B /// KIR2DS1 /// KIR2DS2 /// KIR2DS3 /// KIR2DS4 /// KIR3DL3 /// KIR3DL3 /// KIR3DS1 (11738374_at) / Fold change /veh KIR2DL2 /// KIR2DL4 /// KIR2DL5A /// KIR2DL5B /// KIR2DS1 /// KIR2DS2 /// KIR2DS3 /// KIR2DS4 /// KIR3DL3 /// KIR3DL3 /// KIR3DS1 (11738374_at) / RFU C1QL1 (11718748_at) / Fold change /veh C1QL1 (11718748_at) / RFU TMPRSS4 (11747572_a_at) / Fold change /veh TMPRSS4 (11747572_a_at) / RFU HAMP (11756126_x_at) / Fold change /veh HAMP (11756126_x_at) / RFU RNFT2 (11725882_a_at) / Fold change /veh RNFT2 (11725882_a_at) / RFU NR4A2 (11747474_a_at) / Fold change /veh NR4A2 (11747474_a_at) / RFU ABCC12 (11746883_a_at) / Fold change /veh ABCC12 (11746883_a_at) / RFU TMEM136 (11760407_x_at) / Fold change /veh TMEM136 (11760407_x_at) / RFU CLDN22 /// WWC2 (11732394_at) / Fold change /veh CLDN22 /// WWC2 (11732394_at) / RFU HLA-DPB1 (11760878_x_at) / Fold change /veh HLA-DPB1 (11760878_x_at) / RFU SPINT1 (11716480_a_at) / Fold change /veh SPINT1 (11716480_a_at) / RFU GAP43 (11754022_s_at) / Fold change /veh GAP43 (11754022_s_at) / RFU A4GNT (11735810_at) / Fold change /veh A4GNT (11735810_at) / RFU PRB3 (11715151_x_at) / Fold change /veh PRB3 (11715151_x_at) / RFU TUBB4B (11761932_at) / Fold change /veh TUBB4B (11761932_at) / RFU CAPN14 (11732068_a_at) / Fold change /veh CAPN14 (11732068_a_at) / RFU TMCC2 (11721928_a_at) / Fold change /veh TMCC2 (11721928_a_at) / RFU IRGQ (11745062_a_at) / Fold change /veh IRGQ (11745062_a_at) / RFU FAM174B (11720279_a_at) / Fold change /veh FAM174B (11720279_a_at) / RFU TMPRSS4 (11748680_a_at) / Fold change /veh TMPRSS4 (11748680_a_at) / RFU FAM212B (11763350_a_at) / Fold change /veh FAM212B (11763350_a_at) / RFU PLEKHG5 (11743358_a_at) / Fold change /veh PLEKHG5 (11743358_a_at) / RFU ZSCAN30 (11745921_a_at) / Fold change /veh ZSCAN30 (11745921_a_at) / RFU CMKLR1 (11741424_a_at) / Fold change /veh CMKLR1 (11741424_a_at) / RFU LOC101060620 /// MAPK8IP1 (11723275_at) / Fold change /veh LOC101060620 /// MAPK8IP1 (11723275_at) / RFU SPTSSB (11747773_x_at) / Fold change /veh SPTSSB (11747773_x_at) / RFU PRSS12 (11739890_at) / Fold change /veh PRSS12 (11739890_at) / RFU BIN1 (11741810_x_at) / Fold change /veh BIN1 (11741810_x_at) / RFU WNT11 (11732464_a_at) / Fold change /veh WNT11 (11732464_a_at) / RFU C10orf10 (11716521_a_at) / Fold change /veh C10orf10 (11716521_a_at) / RFU C5orf56 (11738089_at) / Fold change /veh C5orf56 (11738089_at) / RFU CYB561 (11721691_x_at) / Fold change /veh CYB561 (11721691_x_at) / RFU ANKRD19P (11752326_a_at) / Fold change /veh ANKRD19P (11752326_a_at) / RFU OR2T12 /// OR2T33 /// OR2T8 (11738714_s_at) / Fold change /veh OR2T12 /// OR2T33 /// OR2T8 (11738714_s_at) / RFU VCAN (11748164_a_at) / Fold change /veh VCAN (11748164_a_at) / RFU JSRP1 (11732532_at) / Fold change /veh JSRP1 (11732532_at) / RFU KRTAP10-11 (11738290_x_at) / Fold change /veh KRTAP10-11 (11738290_x_at) / RFU MYO3A (11730013_a_at) / Fold change /veh MYO3A (11730013_a_at) / RFU EBF3 (11725865_a_at) / Fold change /veh EBF3 (11725865_a_at) / RFU CAMK2N1 (11719241_x_at) / Fold change /veh CAMK2N1 (11719241_x_at) / RFU C5orf56 (11738088_a_at) / Fold change /veh C5orf56 (11738088_a_at) / RFU OLFML3 (11715873_a_at) / Fold change /veh OLFML3 (11715873_a_at) / RFU LOC100653217 /// NTM (11731650_a_at) / Fold change /veh LOC100653217 /// NTM (11731650_a_at) / RFU MAPK11 (11762145_a_at) / Fold change /veh MAPK11 (11762145_a_at) / RFU FIZ1 (11724087_x_at) / Fold change /veh FIZ1 (11724087_x_at) / RFU OASL (11726364_x_at) / Fold change /veh OASL (11726364_x_at) / RFU SOX15 (11748057_x_at) / Fold change /veh SOX15 (11748057_x_at) / RFU CD79A (11719716_a_at) / Fold change /veh CD79A (11719716_a_at) / RFU HIST1H1D (11736915_at) / Fold change /veh HIST1H1D (11736915_at) / RFU CASKIN2 (11723855_a_at) / Fold change /veh CASKIN2 (11723855_a_at) / RFU LOC730098 (11760151_x_at) / Fold change /veh LOC730098 (11760151_x_at) / RFU OR4N2 (11742367_at) / Fold change /veh OR4N2 (11742367_at) / RFU PRRT2 (11749266_a_at) / Fold change /veh PRRT2 (11749266_a_at) / RFU SNX32 (11753110_a_at) / Fold change /veh SNX32 (11753110_a_at) / RFU CDHR5 (11726645_a_at) / Fold change /veh CDHR5 (11726645_a_at) / RFU RCAN1 (11760418_a_at) / Fold change /veh RCAN1 (11760418_a_at) / RFU FAM167A (11723789_a_at) / Fold change /veh FAM167A (11723789_a_at) / RFU FAM26E (11764081_at) / Fold change /veh FAM26E (11764081_at) / RFU ISYNA1 (11749810_s_at) / Fold change /veh ISYNA1 (11749810_s_at) / RFU ACY1 (11761880_at) / Fold change /veh ACY1 (11761880_at) / RFU 11764098_at / Fold change /veh 11764098_at / RFU SAMD14 (11745864_x_at) / Fold change /veh SAMD14 (11745864_x_at) / RFU NPB (11741838_a_at) / Fold change /veh NPB (11741838_a_at) / RFU TMPRSS6 (11731388_a_at) / Fold change /veh TMPRSS6 (11731388_a_at) / RFU KRTAP10-2 (11738614_at) / Fold change /veh KRTAP10-2 (11738614_at) / RFU ARHGAP8 /// PRR5-ARHGAP8 (11727945_x_at) / Fold change /veh ARHGAP8 /// PRR5-ARHGAP8 (11727945_x_at) / RFU KRTAP5-7 /// NADSYN1 (11734609_at) / Fold change /veh KRTAP5-7 /// NADSYN1 (11734609_at) / RFU RASL12 (11751679_a_at) / Fold change /veh RASL12 (11751679_a_at) / RFU CDKN2B (11736163_a_at) / Fold change /veh CDKN2B (11736163_a_at) / RFU PRF1 (11729649_at) / Fold change /veh PRF1 (11729649_at) / RFU, ZNF638 /// ZNF638-IT1 / Fold change vs veh, ZNF638 /// ZNF638-IT1 / RFU, PANK3 / Fold change vs veh, PANK3 / RFU, SH3YL1 / Fold change vs veh, SH3YL1 / RFU, ZEB2 / Fold change vs veh, ZEB2 / RFU, NRIP1 / Fold change vs veh, NRIP1 / RFU, PTTG1IP / Fold change vs veh, PTTG1IP / RFU, CAPN2 / Fold change vs veh, CAPN2 / RFU, MED14 / Fold change vs veh, MED14 / RFU, SNORA58 / Fold change vs veh, SNORA58 / RFU, C1orf63 / Fold change vs veh, C1orf63 / RFU, LRRFIP1 / Fold change vs veh, LRRFIP1 / RFU, NDUFAF7 / Fold change vs veh, NDUFAF7 / RFU, SLC12A2 / Fold change vs veh, SLC12A2 / RFU, IBTK / Fold change vs veh, IBTK / RFU, ESF1 / Fold change vs veh, ESF1 / Fold change vs veh, TMEM50B / RFU, TAOK1 / Fold change vs veh, TAOK1 / RFU, ACBD3 / Fold change vs veh, ACBD3 / RFU, TMA16 / Fold change vs veh, TMA16 / RFU, RWDD3 / Fold change vs veh, RWDD3 / RFU, BCAT1 / Fold change vs veh, BCAT1 / RFU, EDEM3 / Fold change vs veh, EDEM3 / RFU, TMEM33 / Fold change vs veh, TMEM33 / RFU, WDR75 / Fold change vs veh, WDR75 / RFU, AHCTF1 / Fold change vs veh, AHCTF1 / RFU, TFRC / Fold change vs veh, TFRC / RFU, ZDHHC17 / Fold change vs veh, ZDHHC17 / RFU, NOM1 / Fold change vs veh, NOM1 / RFU, ARL8B / Fold change vs veh, ARL8B / RFU, ZBTB11 / Fold change vs veh, ZBTB11 / RFU, TAMM41 / Fold change vs veh, TAMM41 / RFU, KIAA1704 /// LOC100996395 / Fold change vs veh, KIAA1704 /// LOC100996395 / RFU, ING1 / Fold change vs veh, ING1 / RFU, TRMT61B / Fold change vs veh, TRMT61B / RFU, FUBP3 / Fold change vs veh, FUBP3 / RFU, TP53 / Fold change vs veh, TP53 / RFU, TNKS2 / Fold change vs veh, TNKS2 / RFU, ZFP14 / Fold change vs veh, ZFP14 / RFU, ACTR2 / Fold change vs veh, ACTR2 / RFU, PPP3R1 / Fold change vs veh, PPP3R1 / RFU, PIK3R1 / Fold change vs veh, PIK3R1 / RFU, HNRNPA1 / Fold change vs veh, HNRNPA1 / RFU, RNF170 / Fold change vs veh, RNF170 / RFU, ZNF28 / Fold change vs veh, ZNF28 / RFU, RNGTT / Fold change vs veh, RNGTT / RFU, OGT / Fold change vs veh, OGT / RFU, BRD1 / Fold change vs veh, BRD1 / RFU, MARS / Fold change vs veh, MARS / RFU, ZNF655 / Fold change vs veh, ZNF655 / RFU, FAHD1 / Fold change vs veh, FAHD1 / RFU, BDP1 / Fold change vs veh, BDP1 / RFU, LRRCC1 / Fold change vs veh, LRRCC1 / RFU, ARID1A / Fold change vs veh, ARID1A / RFU, ZNF146 / Fold change vs veh, ZNF146 / RFU, ZNF330 / Fold change vs veh, ZNF330 / RFU, GPN3 / Fold change vs veh, GPN3 / RFU, C9orf123 / Fold change vs veh, C9orf123 / RFU, N4BP2L2 / Fold change vs veh, N4BP2L2 / RFU, ARFIP1 / Fold change vs veh, ARFIP1 / RFU, FAM179B / Fold change vs veh, FAM179B / RFU, BCL10 / Fold change vs veh, BCL10 / RFU, UHRF1BP1L / Fold change vs veh, UHRF1BP1L / RFU, BET1 / Fold change vs veh, BET1 / RFU, CNOT2 / Fold change vs veh, CNOT2 / RFU, ZNF268 / Fold change vs veh, ZNF268 / Fold change vs veh, ZNF507 / RFU, DGCR2 / Fold change vs veh, DGCR2 / RFU, WDSUB1 / Fold change vs veh, WDSUB1 / Fold change vs veh, HSP90B1 /// MIR3652 / RFU, ADSS / Fold change vs veh, ADSS / RFU, GK / Fold change vs veh, GK / RFU, ZNF148 / Fold change vs veh, ZNF148 / RFU, TAF9 / Fold change vs veh, TAF9 / RFU, SLC1A5 / Fold change vs veh, SLC1A5 / RFU, SLMO2 / Fold change vs veh, SLMO2 / RFU, ABCC4 / Fold change vs veh, ABCC4 / RFU, LOC101060439 /// RAP1B / Fold change vs veh, LOC101060439 /// RAP1B / RFU, RFX7 / Fold change vs veh, RFX7 / RFU, GTPBP10 / Fold change vs veh, GTPBP10 / RFU, CNEP1R1 / Fold change vs veh, CNEP1R1 / RFU, BIVM-ERCC5 /// ERCC5 / Fold change vs veh, BIVM-ERCC5 /// ERCC5 / RFU, ILF3 / Fold change vs veh, ILF3 / RFU 11762660_at / Fold change /veh 11762660_at / RFU VCAN (11757783_s_at) / Fold change /veh VCAN (11757783_s_at) / RFU DDX43 (11728927_at) / Fold change /veh DDX43 (11728927_at) / RFU KRT8 (11758188_x_at) / Fold change /veh KRT8 (11758188_x_at) / RFU NKD1 (11759106_at) / Fold change /veh NKD1 (11759106_at) / RFU SRD5A1 (11742802_a_at) / Fold change /veh SRD5A1 (11742802_a_at) / RFU TPSAB1 /// TPSB2 (11721975_s_at) / Fold change /veh TPSAB1 /// TPSB2 (11721975_s_at) / RFU GSTM3 (11746129_a_at) / Fold change /veh GSTM3 (11746129_a_at) / RFU IL23R (11737362_x_at) / Fold change /veh IL23R (11737362_x_at) / RFU TMEM51 (11727254_a_at) / Fold change /veh TMEM51 (11727254_a_at) / RFU PIWIL2 (11732686_x_at) / Fold change /veh PIWIL2 (11732686_x_at) / RFU ORM1 (11744905_x_at) / Fold change /veh ORM1 (11744905_x_at) / RFU CCDC152 (11743942_at) / Fold change /veh CCDC152 (11743942_at) / RFU ECM1 (11717891_a_at) / Fold change /veh ECM1 (11717891_a_at) / RFU IL23R (11748794_a_at) / Fold change /veh IL23R (11748794_a_at) / RFU TNFAIP8L3 (11732012_x_at) / Fold change /veh TNFAIP8L3 (11732012_x_at) / RFU MBOAT4 (11741988_at) / Fold change /veh MBOAT4 (11741988_at) / RFU 11764193_at / Fold change /veh 11764193_at / RFU TMEM53 (11763286_at) / Fold change /veh TMEM53 (11763286_at) / RFU MAGEB2 (11727129_at) / Fold change /veh MAGEB2 (11727129_at) / RFU TMEM200A (11744735_a_at) / Fold change /veh TMEM200A (11744735_a_at) / RFU CCDC152 (11751479_a_at) / Fold change /veh CCDC152 (11751479_a_at) / RFU FAM211A (11726209_a_at) / Fold change /veh FAM211A (11726209_a_at) / RFU RGS16 (11746705_a_at) / Fold change /veh RGS16 (11746705_a_at) / RFU VCAN (11755009_s_at) / Fold change /veh VCAN (11755009_s_at) / RFU RHOB (11743442_s_at) / Fold change /veh RHOB (11743442_s_at) / RFU RGS16 (11720943_a_at) / Fold change /veh RGS16 (11720943_a_at) / RFU RGS16 (11720944_at) / Fold change /veh RGS16 (11720944_at) / RFU, VPS4B / Fold change vs veh, VPS4B / RFU, CREB1 / Fold change vs veh, CREB1 / RFU, DNAJC13 / Fold change vs veh, DNAJC13 / RFU, GNAQ / Fold change vs veh, GNAQ / RFU, CDK5R1 / Fold change vs veh, CDK5R1 / RFU, ZRANB3 / Fold change vs veh, ZRANB3 / RFU, CUL4A / Fold change vs veh, CUL4A / RFU, CCNY / Fold change vs veh, CCNY / RFU, UFL1 / Fold change vs veh, UFL1 / RFU, COG3 / Fold change vs veh, COG3 / RFU, DIAPH2 / Fold change vs veh, DIAPH2 / RFU, SKA2 / Fold change vs veh, SKA2 / RFU, AFF3 / Fold change vs veh, AFF3 / RFU, LMF1 / Fold change vs veh, LMF1 / RFU, IPO11 / Fold change vs veh, IPO11 / RFU, DFFB / Fold change vs veh, DFFB / RFU, FOXP1 / Fold change vs veh, FOXP1 / RFU, CARD8 / Fold change vs veh, CARD8 / RFU, STRN3 / Fold change vs veh, STRN3 / RFU, ADK / Fold change vs veh, ADK / RFU, RASSF2 / Fold change vs veh, RASSF2 / RFU, WIPF1 / Fold change vs veh, WIPF1 / RFU, LARP1B / Fold change vs veh, LARP1B / RFU, RASA1 / Fold change vs veh, RASA1 / RFU, RB1 / Fold change vs veh, RB1 / RFU, PPFIA1 / Fold change vs veh, PPFIA1 / RFU, MAT2A / Fold change vs veh, MAT2A / RFU, CCT5 / Fold change vs veh, CCT5 / RFU, WDR92 / Fold change vs veh, WDR92 / RFU, CUX1 / Fold change vs veh, CUX1 / RFU, TTC7A / Fold change vs veh, TTC7A / RFU, TMEM135 / Fold change vs veh, TMEM135 / RFU, DEPTOR / Fold change vs veh, DEPTOR / RFU, CPM / Fold change vs veh, CPM / RFU, DNAJB6 / Fold change vs veh, DNAJB6 / RFU, CACNA2D3 / Fold change vs veh, CACNA2D3 / RFU, DTX4 / Fold change vs veh, DTX4 / RFU, TFCP2 / Fold change vs veh, TFCP2 / RFU, GMCL1 /// GMCL1P1 / Fold change vs veh, GMCL1 /// GMCL1P1 / RFU, AEBP2 / Fold change vs veh, AEBP2 / RFU, SNHG1 /// SNORD22 /// SNORD25 /// SNORD26 /// SNORD27 /// SNORD28 /// SNORD29 /// SNORD31 / Fold change vs veh, SNHG1 /// SNORD22 /// SNORD25 /// SNORD26 /// SNORD27 /// SNORD28 /// SNORD29 /// SNORD31 / Fold change (Aza/veh), C12orf56 (ProbeSet 11735607_a_at) / Fold change (ACY-1035/veh), C12orf56 (ProbeSet 11735607_a_at) / Fold change (Aza/veh), FGFR1OP (ProbeSet 11751329_s_at) / Fold change (ACY-1035/veh), FGFR1OP (ProbeSet 11751329_s_at) / Fold change (Aza/veh), VPS36 (ProbeSet 11739960_a_at) / Fold change (ACY-1035/veh), VPS36 (ProbeSet 11739960_a_at) / RFU SYPL1 (11715823_x_at) / Fold change /veh SYPL1 (11715823_x_at) / RFU IGFBP7 (11715501_s_at) / Fold change /veh IGFBP7 (11715501_s_at) / RFU REEP3 (11722064_at) / Fold change /veh REEP3 (11722064_at) / RFU IGLL1 (11728026_x_at) / Fold change /veh IGLL1 (11728026_x_at): dose or concentration left out as unconfirmed.

The structures appear in SMILES notation.

As for `Nc1ccc(-c2cccs2)cc1NC(=O)c1ccc2c(c1)cc(C1CC1)n2CCN1CCOCC1` [ACY-1035], the “Fold change vs veh, GNAQ” value is on record as 0.91.
